The values below come from patent US20250353891A1 (MEDIMMUNE LIMITED, priority 2022, published 2025).

Like-named read-outs stand apart in the source and are kept apart here. Starred links: 1 amine or outer side, 2 acyl side, 3 side chain; linkers in the order of their positions; H or OH if unused. Non-standard residues stand in square brackets, D forms with d. Residues, ends and D or L forms follow the SMILES beside them. Groups on a side chain read outwards from the residue. *: point of attachment. C18 diacid = O=C(O)CCCCCCCCCCCCCCCCC(=O)*; γGlu = O=C(O)[C@H](CCC(=O)[*:2])N[*:1]; αMeF = C[C@](N)(Cc1ccccc1)C(=O)O; AEEA = NCCOCCOCC(=O)O; Aib = CC(C)(N)C(=O)O

Assay [1] deals with human glucagon receptor (hGCGR) (Homo sapiens, UniProt P47871). Briefly: cAMP production (HTRF) in CHO cells expressing hGCGR. Format: cell-based. Further details: expressed in transfected cells. To be noted: cAMP in CHO hGCGR cells, geometric mean, read-out: hGluc-R EC50. In short, it runs like this: (§1)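 Potency values represent EC50 from 4-parameter logistic curves of HTRF % Delta F signal. Receptor-expressing CHO cells (hGCGR 2×10^5 cells/mL, hGLP-1R 1×10^5 cells/mL) were exposed for 30 min at room temperature before two-step cAMP detection.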
(Cyclic AMP is a second messenger, typically raised through Gs and lowered through Gi signalling.)

For assay [2], the target named is human GLP-1 receptor (hGLP-1R) (Homo sapiens, UniProt P43220). Briefly: cAMP production (HTRF) in CHO cells expressing hGLP-1R. Format: cell-based. More on the design: expressed in transfected cells. The conditions noted are these: for EC50: cAMP in CHO hGLP-1R cells, geometric mean, read-out: hGLP-1R EC50; for % Relative Potency Ratio: % GLP-1R activity relative to GLP-1 / % GlucR activity relative to glucagon. In short, it runs like this:
as §1

[3] abbreviates: Table 6, peptides modified at position 17.
Setting [4] is: Table 7, peptides modified at position 20.

Chain of human glucagon receptor (hGCGR) (P47871 26-477): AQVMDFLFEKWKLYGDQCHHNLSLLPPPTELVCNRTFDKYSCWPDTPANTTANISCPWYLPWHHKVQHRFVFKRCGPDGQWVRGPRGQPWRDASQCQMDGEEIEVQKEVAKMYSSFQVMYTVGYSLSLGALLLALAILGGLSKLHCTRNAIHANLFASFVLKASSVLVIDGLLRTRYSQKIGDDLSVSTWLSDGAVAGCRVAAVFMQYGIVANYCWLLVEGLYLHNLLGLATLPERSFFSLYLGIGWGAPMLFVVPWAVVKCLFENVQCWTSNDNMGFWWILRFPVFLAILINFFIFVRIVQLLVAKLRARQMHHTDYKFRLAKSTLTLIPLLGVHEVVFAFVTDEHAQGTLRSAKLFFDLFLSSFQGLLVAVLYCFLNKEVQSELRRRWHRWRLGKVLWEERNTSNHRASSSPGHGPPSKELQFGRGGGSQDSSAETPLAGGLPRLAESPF
Chain of human GLP-1 receptor (hGLP-1R) (P43220 24-463): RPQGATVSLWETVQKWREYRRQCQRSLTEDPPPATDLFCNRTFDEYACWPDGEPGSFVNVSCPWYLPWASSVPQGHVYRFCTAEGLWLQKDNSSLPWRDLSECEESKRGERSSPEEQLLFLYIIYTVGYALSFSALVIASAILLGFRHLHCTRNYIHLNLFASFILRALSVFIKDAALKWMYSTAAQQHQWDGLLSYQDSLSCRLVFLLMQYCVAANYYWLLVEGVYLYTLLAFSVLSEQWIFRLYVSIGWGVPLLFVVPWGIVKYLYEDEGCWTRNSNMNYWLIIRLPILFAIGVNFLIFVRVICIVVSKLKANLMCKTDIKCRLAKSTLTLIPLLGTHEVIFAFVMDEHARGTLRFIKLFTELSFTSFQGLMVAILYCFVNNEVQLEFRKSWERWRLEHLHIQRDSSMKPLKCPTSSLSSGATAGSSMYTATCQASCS

One may read the EC50 as the midpoint of the concentration-response curve. For `CC[C@H](C)[C@H](NC(=O)[C@H](Cc1ccccc1)NC(=O)[C@H](CCC(=O)O)NC(=O)[C@H](CCCNC(=N)N)NC(=O)[C@H](C)NC(=O)[C@H](C)NC(=O)[C@H](CCCCNC(=O)COCCOCCNC(=O)COCCOCCNC(=O)CC[C@H](NC(=O)CC[C@H](NC(=O)CCCCCCCCCCCCCCCCC(=O)O)C(=O)O)C(=O)O)NC(=O)[C@H](C)NC(=O)[C@H](CCC(=O)O)NC(=O)[C@H](CC(C)C)NC(=O)[C@](C)(Cc1ccccc1)NC(=O)[C@H](CCCCN)NC(=O)[C@H](CO)NC(=O)[C@@H](NC(=O)[C@H](CC(=O)O)NC(=O)[C@H](CO)NC(=O)[C@@H](NC(=O)[C@H](Cc1ccccc1)NC(=O)[C@@H](NC(=O)CNC(=O)[C@H](CCC(N)=O)NC(=O)C(C)(C)NC(=O)[C@@H](N)Cc1c[nH]cn1)[C@@H](C)O)[C@@H](C)O)C(C)C)C(=O)N[C@@H](C)C(=O)N[C@@H](Cc1c[nH]c2ccccc12)C(=O)N[C@@H](CC(C)C)C(=O)N[C@@H](CC(C)C)C(=O)N[C@@H](CCC(=O)O)C(=O)N[C@H](C(N)=O)[C@@H](C)O` [Peptide 517] (H-H[Aib]QGTFTSDVSK[αMeF]LEAK([AEEA-AEEA-γGlu-γGlu-C18 diacid])AAREFIAWLLET-NH2), the half-maximal effective concentration (EC50) was determined as 738 pM in assay [1] (setting [3]) and 146 pM in assay [2] (setting [3]). In addition, the “% Relative Potency Ratio” value in assay [2] (Table 6) worked out at 10.0.

Consider `CC(C)C[C@H](NC(=O)[C@H](Cc1c[nH]c2ccccc12)NC(=O)[C@H](CCC(N)=O)NC(=O)[C@@H](NC(=O)[C@H](Cc1ccccc1)NC(=O)[C@H](CC(=O)O)NC(=O)[C@H](CCCNC(=N)N)NC(=O)[C@H](C)NC(=O)[C@H](CCCNC(=N)N)NC(=O)[C@H](CCCCNC(=O)COCCOCCNC(=O)COCCOCCNC(=O)CC[C@H](NC(=O)CC[C@H](NC(=O)CCCCCCCCCCCCCCCCC(=O)O)C(=O)O)C(=O)O)NC(=O)[C@@H](NC(=O)[C@H](CC(=O)O)NC(=O)[C@H](CC(C)C)NC(=O)[C@](C)(Cc1ccccc1)NC(=O)[C@H](CCCCN)NC(=O)[C@H](CO)NC(=O)[C@@H](NC(=O)[C@H](CC(=O)O)NC(=O)[C@H](CO)NC(=O)[C@@H](NC(=O)[C@H](Cc1ccccc1)NC(=O)[C@@H](NC(=O)CNC(=O)[C@H](CCC(N)=O)NC(=O)C(C)(C)NC(=O)[C@@H](N)Cc1c[nH]cn1)[C@@H](C)O)[C@@H](C)O)C(C)C)[C@@H](C)O)C(C)C)C(=O)N[C@@H](CC(C)C)C(=O)N[C@@H](CCC(=O)O)C(=O)NC(C)(C)C(=O)NCC(=O)O` [Peptide 518], for which the EC50 in assay [1] (setting [3]) was 77.3 pM; in assay [2] (setting [3]), 31 pM. Besides, in assay [2] (Table 6), the “% Relative Potency Ratio” value was 4.9.

On to `CC(C)C[C@H](NC(=O)[C@H](Cc1c[nH]c2ccccc12)NC(=O)[C@H](CCC(N)=O)NC(=O)[C@@H](NC(=O)[C@H](Cc1ccccc1)NC(=O)[C@H](CC(=O)O)NC(=O)[C@H](CCCNC(=N)N)NC(=O)[C@H](C)NC(=O)[C@H](CCCNC(=N)N)NC(=O)[C@H](CCCCNC(=O)CC[C@H](NC(=O)CC[C@H](NC(=O)COCCOCCNC(=O)COCCOCCNC(=O)CC[C@H](NC(=O)CC[C@H](NC(=O)CCCCCCCCCCCCCCCCC(=O)O)C(=O)O)C(=O)O)C(=O)O)C(=O)O)NC(=O)[C@@H](NC(=O)[C@H](CC(=O)O)NC(=O)[C@H](CC(C)C)NC(=O)[C@](C)(Cc1ccccc1)NC(=O)[C@H](CCCCN)NC(=O)[C@H](CO)NC(=O)[C@@H](NC(=O)[C@H](CC(=O)O)NC(=O)[C@H](CO)NC(=O)[C@@H](NC(=O)[C@H](Cc1ccccc1)NC(=O)[C@@H](NC(=O)CNC(=O)[C@H](CCC(N)=O)NC(=O)C(C)(C)NC(=O)[C@@H](N)Cc1c[nH]cn1)[C@@H](C)O)[C@@H](C)O)C(C)C)[C@@H](C)O)C(C)C)C(=O)N[C@@H](CC(C)C)C(=O)N[C@@H](CCC(=O)O)C(=O)NC(C)(C)C(=O)NCC(=O)O` [Peptide 519], for which the figures for the EC50 in assay [1] (setting [3]) and in assay [2] (setting [3]) were 386 pM and 172 pM, respectively. The “% Relative Potency Ratio” value in assay [2] (Table 6) amounted to 4.4.

For `CC(C)C[C@H](NC(=O)[C@H](Cc1c[nH]c2ccccc12)NC(=O)[C@H](CCC(N)=O)NC(=O)[C@@H](NC(=O)[C@H](Cc1ccccc1)NC(=O)[C@H](CC(=O)O)NC(=O)[C@H](CCCNC(=N)N)NC(=O)[C@H](C)NC(=O)[C@H](CCCNC(=N)N)NC(=O)[C@H](CCCCNC(=O)CC[C@H](NC(=O)CC[C@H](NC(=O)COCCOCCNC(=O)COCCOCCNC(=O)CC[C@H](NC(=O)CC[C@H](NC(=O)CCCCCCCCCCCCCCCCCCC(=O)O)C(=O)O)C(=O)O)C(=O)O)C(=O)O)NC(=O)[C@@H](NC(=O)[C@H](CC(=O)O)NC(=O)[C@H](CC(C)C)NC(=O)[C@](C)(Cc1ccccc1)NC(=O)[C@H](CCCCN)NC(=O)[C@H](CO)NC(=O)[C@@H](NC(=O)[C@H](CC(=O)O)NC(=O)[C@H](CO)NC(=O)[C@@H](NC(=O)[C@H](Cc1ccccc1)NC(=O)[C@@H](NC(=O)CNC(=O)[C@H](CCC(N)=O)NC(=O)C(C)(C)NC(=O)[C@@H](N)Cc1c[nH]cn1)[C@@H](C)O)[C@@H](C)O)C(C)C)[C@@H](C)O)C(C)C)C(=O)N[C@@H](CC(C)C)C(=O)N[C@@H](CCC(=O)O)C(=O)NC(C)(C)C(=O)NCC(=O)O` [Peptide 520], the half-maximal effective concentration (EC50) in assay [1] (setting [3]) was determined as 1620 pM; in assay [2] (setting [3]), 543 pM. Further, in assay [2] (Table 6), the “% Relative Potency Ratio” value is 5.9.

Regarding `CC(C)C[C@H](NC(=O)[C@H](Cc1c[nH]c2ccccc12)NC(=O)[C@H](CCC(N)=O)NC(=O)[C@@H](NC(=O)[C@H](Cc1ccccc1)NC(=O)[C@H](CC(=O)O)NC(=O)[C@H](CCCCNC(=O)COCCOCCNC(=O)COCCOCCNC(=O)CC[C@H](NC(=O)CCCCCCCCCCCCCCCCC(=O)O)C(=O)O)NC(=O)[C@H](C)NC(=O)[C@H](CCCNC(=N)N)NC(=O)[C@H](CCC(=O)O)NC(=O)[C@H](CO)NC(=O)[C@H](CC(=O)O)NC(=O)[C@H](CC(C)C)NC(=O)[C@](C)(Cc1ccccc1)NC(=O)[C@H](CCCCN)NC(=O)[C@H](CO)NC(=O)[C@@H](NC(=O)[C@H](CC(=O)O)NC(=O)[C@H](CO)NC(=O)[C@@H](NC(=O)[C@H](Cc1ccccc1)NC(=O)[C@@H](NC(=O)CNC(=O)[C@H](CCC(N)=O)NC(=O)C(C)(C)NC(=O)[C@@H](N)Cc1c[nH]cn1)[C@@H](C)O)[C@@H](C)O)C(C)C)C(C)C)C(=O)N[C@@H](CCC(=O)O)C(=O)N[C@@H](C)C(=O)NCC(=O)NCC(=O)O` [Peptide 521], the concentration giving a half-maximal response (EC50) was found to be 10100 pM in assay [1] (setting [4]) and 677 pM in assay [2] (setting [4]). Further, the “% Relative Potency Ratio” value in assay [2] (Table 7) was 29.5.

`CC(C)C[C@H](NC(=O)[C@H](Cc1c[nH]c2ccccc12)NC(=O)[C@H](C)NC(=O)[C@@H](NC(=O)[C@H](Cc1ccccc1)NC(=O)[C@H](CC(=O)O)NC(=O)[C@H](CCCCNC(=O)COCCOCCNC(=O)COCCOCCNC(=O)CC[C@H](NC(=O)CCCCCCCCCCCCCCCCC(=O)O)C(=O)O)NC(=O)[C@H](C)NC(=O)[C@H](CCCNC(=N)N)NC(=O)[C@H](CCC(=O)O)NC(=O)[C@H](CO)NC(=O)[C@H](CC(=O)O)NC(=O)[C@H](CC(C)C)NC(=O)[C@](C)(Cc1ccccc1)NC(=O)[C@H](CCCCN)NC(=O)[C@H](CO)NC(=O)[C@@H](NC(=O)[C@H](CC(=O)O)NC(=O)[C@H](CO)NC(=O)[C@@H](NC(=O)[C@H](Cc1ccccc1)NC(=O)[C@@H](NC(=O)CNC(=O)[C@H](CCC(N)=O)NC(=O)C(C)(C)NC(=O)[C@@H](N)Cc1c[nH]cn1)[C@@H](C)O)[C@@H](C)O)C(C)C)C(C)C)C(=O)N[C@@H](CCC(=O)O)C(=O)N[C@@H](C)C(=O)NCC(=O)NCC(=O)O` [Peptide 522]: the concentration giving a half-maximal response (EC50) in assay [1] (setting [4]) came to 6360 pM; in assay [2] (setting [4]), 508 pM. The “% Relative Potency Ratio” value in assay [2] (Table 7) is 24.8.

Consider `CC(C)C[C@H](NC(=O)[C@H](Cc1c[nH]c2ccccc12)NC(=O)[C@H](C)NC(=O)[C@@H](NC(=O)[C@H](Cc1ccccc1)NC(=O)[C@H](CC(=O)O)NC(=O)[C@H](CCCCNC(=O)COCCOCCNC(=O)COCCOCCNC(=O)CC[C@H](NC(=O)CCCCCCCCCCCCCCCCCCC(=O)O)C(=O)O)NC(=O)[C@H](C)NC(=O)[C@H](CCCNC(=N)N)NC(=O)[C@H](CCC(=O)O)NC(=O)[C@H](CO)NC(=O)[C@H](CC(=O)O)NC(=O)[C@H](CC(C)C)NC(=O)[C@](C)(Cc1ccccc1)NC(=O)[C@H](CCCCN)NC(=O)[C@H](CO)NC(=O)[C@@H](NC(=O)[C@H](CC(=O)O)NC(=O)[C@H](CO)NC(=O)[C@@H](NC(=O)[C@H](Cc1ccccc1)NC(=O)[C@@H](NC(=O)CNC(=O)[C@H](CCC(N)=O)NC(=O)C(C)(C)NC(=O)[C@@H](N)Cc1c[nH]cn1)[C@@H](C)O)[C@@H](C)O)C(C)C)C(C)C)C(=O)N[C@@H](CCC(=O)O)C(=O)N[C@@H](C)C(=O)NCC(=O)NCC(=O)O` [Peptide 523], for which the EC50 in assay [1] (setting [4]) is above 24700 pM; in assay [2] (setting [4]), 615 pM.

As for `CC(C)C[C@H](NC(=O)[C@H](Cc1c[nH]c2ccccc12)NC(=O)[C@H](CCCNC(=N)N)NC(=O)[C@@H](NC(=O)[C@H](Cc1ccccc1)NC(=O)[C@H](CC(=O)O)NC(=O)[C@H](CCCCNC(=O)COCCOCCNC(=O)COCCOCCNC(=O)CC[C@H](NC(=O)CCCCCCCCCCCCCCCCC(=O)O)C(=O)O)NC(=O)[C@H](C)NC(=O)[C@H](CCCNC(=N)N)NC(=O)[C@H](CCC(=O)O)NC(=O)[C@H](CO)NC(=O)[C@H](CC(=O)O)NC(=O)[C@H](CC(C)C)NC(=O)[C@](C)(Cc1ccccc1)NC(=O)[C@H](CCC(=O)O)NC(=O)[C@H](CO)NC(=O)[C@@H](NC(=O)[C@H](CC(=O)O)NC(=O)[C@H](CO)NC(=O)[C@@H](NC(=O)[C@H](Cc1ccccc1)NC(=O)[C@@H](NC(=O)CNC(=O)[C@H](CCC(N)=O)NC(=O)C(C)(C)NC(=O)[C@@H](N)Cc1c[nH]cn1)[C@@H](C)O)[C@@H](C)O)C(C)C)C(C)C)C(=O)N[C@@H](CCC(=O)O)C(=O)N[C@@H](C)C(=O)NCC(=O)NCC(=O)O` [Peptide 524] (H-H[Aib]QGTFTSDVSE[αMeF]LDSERAK([AEEA-AEEA-γGlu-C18 diacid])DFVRWLEAGG-OH), the EC50 in assay [1] (setting [4]) was above 24400 pM; in assay [2] (setting [4]), 366 pM.
